Measured values taken from ChEMBL document CHEMBL5036353, “Discovery of Pyrazolo[3,4-d]pyridazinone Derivatives as Selective DDR1 Inhibitors via Deep Learning Based Design, Synthesis, and Biological Evaluation” (J Med Chem, 2022).
Activity calls are given as the source filed them.

Assays:
THP-1 [1] = experiment: Antiinflammatory activity against human THP-1 derived macrophage assessed as inhibition of LPS-induced TNF expression at 10 uM by ELISA; type: functional, cell-based
Mus musculus [2] = experiment: Anti-colitis activity against DSS-induced IBD C57BL/6 mouse model assessed as reduction in TNF transcription level in colon at 5 to 10 mg/kg, po administered daily by RT-qPCR analysis; type: functional, organism-based; conditions: dose 5-10 mg/kg
Mus musculus [3] = experiment: Anti-colitis activity against DSS-induced IBD C57BL/6 mouse model assessed as reduction in serum IL-1beta expression at 5 to 10 mg/kg, po administered daily by ELISA; type: functional, organism-based; conditions: dose 5-10 mg/kg
Mus musculus [4] = experiment: Anti-colitis activity against DSS-induced IBD C57BL/6 mouse model assessed as reduction in IL-6 transcription level in colon at 5 to 10 mg/kg, po administered daily by RT-qPCR analysis; type: functional, organism-based; conditions: dose 5-10 mg/kg
Mus musculus [5] = experiment: Anti-colitis activity against DSS-induced IBD C57BL/6 mouse model assessed as improvement in DSS induced weight loss at 5 to 10 mg/kg, po administered daily and measured after 5 to 8 days; type: functional, organism-based; conditions: dose 5-10 mg/kg, time 5-8 day
Mus musculus [6] = experiment: Anti-colitis activity against DSS-induced IBD C57BL/6 mouse model assessed as reduction in inflammatory cell infiltration in colon at 5 to 10 mg/kg, po administered daily measured after 9 days by HE staining based analysis; type: functional, organism-based; conditions: dose 5-10 mg/kg, time 9.0 day
Macrophage [7] = experiment: Antiinflammatory activity against mouse primary bone marrow derived macrophages assessed as inhibition of LPS-induced IL-6 expression by ELISA; type: functional, tissue-based; conditions: dose 10.0 µM
THP-1 [8] = experiment: Antiinflammatory activity against human THP-1 derived macrophage assessed as inhibition of LPS-induced IL-1beta expression at 10 uM by ELISA; type: functional, cell-based
Mus musculus [9] = experiment: Anti-colitis activity against DSS-induced IBD C57BL/6 mouse model assessed as reduction in serum IL-6 expression at 5 to 10 mg/kg, po administered daily by ELISA; type: functional, organism-based; conditions: dose 5-10 mg/kg
Macrophage [10] = experiment: Antiinflammatory activity against mouse primary bone marrow derived macrophages assessed as inhibition of LPS-induced TNF expression at 10 uM by ELISA; type: functional, tissue-based
Mus musculus [11] = experiment: Anti-colitis activity against DSS-induced IBD C57BL/6 mouse model assessed as reduction in severe epithelial destruction in colon at 5 to 10 mg/kg, po administered daily measured after 9 days by HE staining based analysis; type: functional, organism-based; conditions: dose 5-10 mg/kg, time 9.0 day
[12] = target: NT-3 growth factor receptor (Homo sapiens) (UniProt Q16288); experiment: Inhibition of recombinant human TRKC (510 to end residues) assessed as residual activity at 10 uM using GEEPLYWSFPAKKK as substrate incubated for 40 mins in presence of [gamma33P]ATP by scintillation counting based radiometry assay relative to control
Mus musculus [13] = experiment: Anti-colitis activity against DSS-induced IBD C57BL/6 mouse model assessed as reduction in serum TNF expression at 5 to 10 mg/kg, po administered daily by ELISA; type: functional, organism-based; conditions: dose 5-10 mg/kg
Mus musculus [14] = experiment: Anti-colitis activity against DSS-induced IBD C57BL/6 mouse model assessed as reduction in IL-1beta transcription level in colon at 5 to 10 mg/kg, po administered daily by RT-qPCR analysis; type: functional, organism-based; conditions: dose 5-10 mg/kg
THP-1 [15] = experiment: Antiinflammatory activity against human THP-1 derived macrophages assessed as inhibition of LPS-induced IL6 expression by ELISA; type: functional, cell-based; conditions: dose 10.0 µM
Mus musculus [16] = experiment: Anti-colitis activity against DSS-induced IBD C57BL/6 mouse model assessed as reduction in crypt loss in colon at 5 to 10 mg/kg, po administered daily measured after 9 days by HE staining based analysis; type: functional, organism-based; conditions: dose 5-10 mg/kg, time 9.0 day
Mus musculus [17] = experiment: Anti-colitis activity against DSS-induced IBD C57BL/6 mouse model assessed as reduction in fecal occult blood score at 5 to 10 mg/kg, po administered daily and measured after 9 days; type: functional, organism-based; conditions: dose 5-10 mg/kg, time 9.0 day
Macrophage [18] = experiment: Antiinflammatory activity against mouse primary bone marrow derived macrophages assessed as inhibition of LPS-induced IL-1beta expression at 10 uM by ELISA; type: functional, tissue-based
Mus musculus [19] = experiment: Anti-colitis activity against DSS-induced IBD C57BL/6 mouse model assessed as improvement in DSS reduced colon length at 5 to 10 mg/kg, po administered daily and measured after 9 days; type: functional, organism-based; conditions: dose 5-10 mg/kg, time 9.0 day

Measured: Activity

Chain of NT-3 growth factor receptor (Homo sapiens) (Q16288 32-839 limits assumed): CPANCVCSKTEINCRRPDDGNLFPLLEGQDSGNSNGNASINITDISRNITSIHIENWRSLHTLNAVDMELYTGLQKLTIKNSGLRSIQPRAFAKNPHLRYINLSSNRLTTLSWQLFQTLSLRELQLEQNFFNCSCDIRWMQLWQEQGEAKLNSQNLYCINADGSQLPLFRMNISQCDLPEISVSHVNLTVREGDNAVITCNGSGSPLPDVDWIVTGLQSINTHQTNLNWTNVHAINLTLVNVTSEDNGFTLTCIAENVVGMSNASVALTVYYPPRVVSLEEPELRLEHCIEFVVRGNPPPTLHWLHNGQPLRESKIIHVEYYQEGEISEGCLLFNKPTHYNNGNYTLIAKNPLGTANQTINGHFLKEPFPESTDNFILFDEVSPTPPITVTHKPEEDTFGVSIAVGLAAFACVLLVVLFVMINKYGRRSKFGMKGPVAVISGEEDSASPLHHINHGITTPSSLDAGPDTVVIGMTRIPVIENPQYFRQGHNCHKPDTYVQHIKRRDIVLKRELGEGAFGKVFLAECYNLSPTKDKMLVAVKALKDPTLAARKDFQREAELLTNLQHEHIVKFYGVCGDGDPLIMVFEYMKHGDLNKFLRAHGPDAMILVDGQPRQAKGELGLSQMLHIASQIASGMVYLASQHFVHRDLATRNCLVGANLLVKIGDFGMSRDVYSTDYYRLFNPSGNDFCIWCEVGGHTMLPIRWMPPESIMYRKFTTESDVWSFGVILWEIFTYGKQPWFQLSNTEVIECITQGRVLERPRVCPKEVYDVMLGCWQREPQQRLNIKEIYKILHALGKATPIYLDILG

CC(=O)Nc1ccc(-n2nc3c(=O)[nH]nc(N)c3c2-c2oc3cc(C(=O)Nc4cccc(C(F)(F)F)c4)ccc3c2C)cc1
active: THP-1 [1] | Mus musculus [2] | Mus musculus [3] | Mus musculus [4] | Mus musculus [5] | Mus musculus [6] | Macrophage [7] Dose-Dependent Effect | THP-1 [8] | Mus musculus [9] | Macrophage [10] | Mus musculus [11] | Mus musculus [13] | Mus musculus [14] | THP-1 [15] Dose-Dependent Effect | Mus musculus [16] | Mus musculus [17] | Macrophage [18] | Mus musculus [19]
45%: [12]
